Key:
Type in all cases: cell-based
[1] = test system: HSP60, HSP10, ClpP and LONP1; assay: Expression of UPRmt components after DCEM1; settings: PCa cells
LNCaP and PC-3 cells [2] = assay: mtDNA damage analysis; settings: 24 hours
Experimental: (§1) FIG. 6. Pharmacological inhibition of HSP60-ClpP interaction induces UPR^mt and PCa cell death. (A) Docking of DCEM1 into apical domain of HSP60. (B) LNCaP and PC-3 cells were treated with DCEM1 for 24 hours and HSP60-ClpP interaction was analyzed by co-immunoprecipitation assay. (C) LNCaP and PC-3 cells were treated with DCEM1 for 24 hours and mitoROS levels were analyzed by flow cytometry using mitoSOX dye. (D) LNCaP and PC-3 cells were treated with DCEM1 for 24 hours and poly-Ub protein levels were analyzed by western blotting. (E) LNCaP and PC-3 cells were treated with DCEM1 for 24 and 48 hours and apoptotic cell populations were analyzed by flow cytometry using Annexin V FITC/PI method as explained in materials and methods. In (E) top panel, the bars in each series from left to right are control, 5, 10, and 20, and in (E) bottom panel, the bars in each series from left to right are DMSO, 5, 10, and 20. (F) LNCaP and PC-3 cells were treated with DCEM1 for 24 and 48 hours and lysates were prepared and analyzed for DEVDase activity using specific peptide substrate. […] (G) LNCaP and PC-3 cells were pre-treated with SKQ1 followed by DCEM1 treatment and analyzed for cell viability by MTT assay. (H) LNCaP and PC-3 cells were treated with either DCEM1 or H2O2 (200 μM) for 24 hours and total DNA were isolated and analyzed for mtDNA damage as described in materials and methods. […]

LNCaP and PC-3 cells [3] = assay: AMPK and mTOR signaling pathways / autophagy activation; settings: PCa cells
Experimental: (§2) FIG. 7. Pharmacological inhibition of HSP60-ClpP interaction induces metabolic stress in PCa cells. (A) LNCaP and PC-3 cells were pre-treated with either rotenone or antimycin-A followed by DCEM1 treatment and mitochondrial ROS was analyzed as described in material and methods (data represented as fold change compared to control). In (A), the bars in each series from left to right are control, DCEM1, Rot+DCEM1, Anti A+DCEM1, Rot, and Anti A (B) ClpP protein was over-expressed in LNCaP and PC-3 cells followed by DCEM1 treatment and mitochondrial ROS was analyzed as described in material and methods (Data represented as fold change compared to control). In (B), the bars in each series from left to right are DMSO and DCEM1. (C) ClpP protein was over-expressed in LNCaP and PC-3 cells followed by DCEM1 treatment and level of poly-ubiquitinated protein was analyzed by western blotting. (D) ClpP protein was over-expressed in LNCaP and PC-3 cells followed by DCEM1 treatment and DEVDase activity was analyzed as described in material and methods (Data represented as fold change compared to control). In (D), the bars in each series from left to right are DMSO and DCEM1. (E) Mitochondrial membrane potential (mitoMP) was analyzed in LNCaP and PC-3 cells treated with DCEM1 as described in material and methods (Data represented as fold change compared to control). In (E), the bars in each series from left to right are DMSO, 5, and 10. (F) ATP level was analyzed in LNCaP and PC-3 cells treated with DCEM1 as described in material and methods (Data represented as fold change compared to control). In (F), the bars in each series from left to right are 0, 5, 10, and 20. (G) Oxygen consumption rate was analyzed in PC-3 cells treated with DCEM1 as described in material and methods and represented as basal and maximal respiration rate; Spare respiratory capacity and ATP production potential. […]
Abrogation of HSP60-ClpP interaction by DCEM1 induces metabolic stress in PCa cells. […] Since ATP depletion/reduction induces autophagy, autophagy activation in PCa cells was analyzed in response to DCEM1 treatment.

[4] = test system: mitochondrial chaperonin activity in PCa cells; assay: Mitochondrial Chaperonin Activity Assay (MiCAA); settings: 24 h
Experimental: FIG. 10. Mitochondrial Chaperonin Activity Assay (MiCAA). PCa cells were treated with either DCEM1 (A) or ETB or Mizoribine (B) for 24 h and mitochondrial (Mito) chaperonin activity was analyzed as described in material and methods. In another experiment, PCa cells were transfected with siRNA to target HSP60 mRNA and mitochondrial chaperonin activity was analyzed (C). In (A), the bars in each series from left to right are DMSO and DCEM1. In (B), the bars in each series from left to right are DMSO, ETB, and MZR. In (C), the bars in each series from left to right are siMock, siHSP60-1, and siHSP60-2.
Since HSP60 chaperonin system is crucial for maintaining mitochondrial homeostasis in normal cells, a novel method, Mitochondrial Chaperonin Activity Assay (MiCAA), was developed to analyze chaperonin activity in live cells using flow cytometry to evaluate whether DCEM1 modulates mitochondrial chaperonin activity.

LNCaP and PC-3 cells [5] = assay: Cellular ATP level
Experimental: as §2, with “In (B), the bars in each series from left to right are DMSO and DCEM1.” left out, “In (D), the bars in each series from left to right are DMSO and DCEM1.” left out, “In (E), the bars in each series from left to right are DMSO, 5, and 10.” left out, “control).” for “control). In (F), the bars in each series from left to right are 0, 5, 10, and 20. (G) Oxygen consumption rate was analyzed in PC-3 cells treated with DCEM1 as described in material and methods and represented as basal and maximal respiration rate; Spare respiratory capacity and ATP production potential.”

PCa cells = assay: Colony forming ability of PCa cells; settings: data not shown
Experimental: Identification of novel inhibitor of HSP60-ClpP interaction that disrupts UPR^mt function and induces PCa cell death. Having shown that two arms of UPR^mt, HSP60 chaperonin and ClpP protease interact and play critical role in PCa cell survival, an in silico analysis was performed and a small molecule library (developed by Enamine Ltd) was screened to identify drugs targeting the apical domain of HSP60 critical for its interaction with ClpP. 9 compounds (A-I) were identified and screened for their cell death inducing potential in PCa cells (data not shown). […] Colony forming ability of PCa cells was inhibited by DCEM1 treatment (data not shown).

HSP60-ClpP interaction = target: T1, HSP60-ClpP interaction (Homo sapiens, UniProt P10809); assay: HSP60-ClpP co-immunoprecipitation assay in PCa cells; settings: LNCaP and PC-3 cells, 24 hours
T1 construct: endogenous in cells
Experimental: as §1

T1 sequence (P10809 27-573): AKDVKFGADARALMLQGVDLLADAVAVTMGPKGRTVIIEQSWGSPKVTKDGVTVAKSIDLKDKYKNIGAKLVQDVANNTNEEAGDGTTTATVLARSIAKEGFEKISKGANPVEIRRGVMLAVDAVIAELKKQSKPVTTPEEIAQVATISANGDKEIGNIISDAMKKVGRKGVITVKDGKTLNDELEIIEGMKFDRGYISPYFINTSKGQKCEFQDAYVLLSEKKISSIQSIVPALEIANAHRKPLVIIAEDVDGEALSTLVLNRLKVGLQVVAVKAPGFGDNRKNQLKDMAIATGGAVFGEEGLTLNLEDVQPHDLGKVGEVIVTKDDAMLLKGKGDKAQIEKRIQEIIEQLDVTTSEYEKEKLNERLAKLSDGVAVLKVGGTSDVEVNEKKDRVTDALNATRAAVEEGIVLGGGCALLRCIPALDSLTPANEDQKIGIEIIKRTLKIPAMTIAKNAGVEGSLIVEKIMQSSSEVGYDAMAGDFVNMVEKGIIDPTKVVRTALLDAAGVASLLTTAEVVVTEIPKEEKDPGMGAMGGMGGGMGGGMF

CCOc1cc(CNCc2nc3ccccc3[nH]2)ccc1OCc1cccs1 [DCEM1]
expression of UPRmt components HSP60, HSP10, ClpP and LONP1 [1]: failed to alter
mtDNA damage (LNCaP and PC-3 cells [2]): Severe mtDNA damage
ULK1 phosphorylation (LNCaP and PC-3 cells [3]): enhanced phosphorylation at serine 555 residue and decreased phosphorylation at serine 757 residue
mTOR signaling (LNCaP and PC-3 cells [3]): inhibited mTOR signaling
p-AMPKa levels and LC3B cleavage (LNCaP and PC-3 cells [3]): Robust increase
mitochondrial chaperonin activity [4]: did not modulate
cellular ATP (LNCaP and PC-3 cells [5]): reduction of cellular ATP
colony forming ability of PCa cells (PCa cells): inhibited
HSP60-ClpP interaction by co-immunoprecipitation (HSP60-ClpP interaction): inhibited HSP60-ClpP interactions in a dose dependent manner

Reference: US20240009174A1, “METHODS FOR DISRUPTING MITOCHONDRIAL UNFOLDED PROTEIN RESPONSE” (Health Research, Inc., priority 2020, published 2024)
